Reference: PubChem BioAssay (NCI)
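Assay format: 96-well plates, 48-hour exposure. TGI marks complete inhibition of growth.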

Key:
Assay in all cases: NCI-60 cell line screen, 48 h
[1] = tested on: UACC-257 melanoma
[2] = tested on: OVCAR-5 ovarian
[3] = tested on: HCT-116 colon
[4] = tested on: SK-MEL-28 melanoma
[5] = tested on: TK-10 renal
[6] = tested on: KM20L2 colon
[7] = tested on: RPMI-8226 leukemia
[8] = tested on: SK-OV-3 ovarian
[9] = tested on: SK-MEL-2 melanoma
[10] = tested on: HCC-2998 colon
[11] = tested on: OVCAR-3 ovarian
[12] = tested on: SK-MEL-5 melanoma
[13] = tested on: MALME-3M melanoma
[14] = tested on: SF-539 CNS
[15] = tested on: CAKI-1 renal
[16] = tested on: NCI-H226 lung
[17] = tested on: K-562 leukemia
[18] = tested on: XF 498 CNS
[19] = tested on: SF-295 CNS
[20] = tested on: DLD-1 colon
[21] = tested on: M14 melanoma
[22] = tested on: HT29 colon
[23] = tested on: MOLT-4 leukemia
[24] = tested on: A549 NSCLC
[25] = tested on: OVCAR-4 ovarian
[26] = tested on: NCI-H460 lung
[27] = tested on: 786-0 renal
[28] = tested on: DMS 273 small cell lung
[29] = tested on: NCI-H522 lung
[30] = tested on: HOP-62 NSCLC
[31] = tested on: SNB-78 CNS
[32] = tested on: SN12C renal
[33] = tested on: EKVX NSCLC
[34] = tested on: SF-268 CNS
[35] = tested on: UACC-62 melanoma
[36] = tested on: M19-MEL melanoma
[37] = tested on: LXFL 529 NSCLC
[38] = tested on: UO-31 renal
[39] = tested on: U251 CNS
[40] = tested on: IGROV1 ovarian
[41] = tested on: SR leukemia
[42] = tested on: NCI-H23 lung
[43] = tested on: SW-620 colon
[44] = tested on: HL-60(TB) leukemia
[45] = tested on: KM12 colon
[46] = tested on: LOX IMVI melanoma
[47] = tested on: A498 renal
[48] = tested on: OVCAR-8 ovarian
[49] = tested on: HOP-18 NSCLC
[50] = tested on: SNB-19 CNS
[51] = tested on: ACHN renal
[52] = tested on: CCRF-CEM leukemia
[53] = tested on: SNB-75 CNS
[54] = tested on: HOP-92 NSCLC
[55] = tested on: HCT-15 colon
[56] = tested on: COLO 205 colon
[57] = tested on: RXF 393 renal
[58] = tested on: DMS 114 small cell lung

C/C(NNC(=O)c1ccccc1O)=C1\C=Nc2ccccc2S1
TGI [1]: > 100 µM | TGI [2]: > 100 µM | TGI [3]: > 100 µM | TGI [4]: > 100 µM | TGI [5]: > 100 µM | TGI [6]: > 100 µM | TGI [7]: > 100 µM | TGI [8]: > 100 µM | TGI [9]: 6.79 µM | TGI [10]: 7.45 µM | TGI [11]: > 100 µM | TGI [12]: > 100 µM | TGI [13]: 27.6 µM | TGI [14]: 7.81 µM | TGI [15]: > 100 µM | TGI [16]: 33.1 µM | TGI [17]: > 100 µM | TGI [18]: > 100 µM | TGI [19]: > 100 µM | TGI [20]: > 100 µM | TGI [21]: 31.1 µM | TGI [22]: > 100 µM | TGI [23]: > 100 µM | TGI [24]: 28.2 µM | TGI [25]: > 100 µM | TGI [26]: 24.7 µM | TGI [27]: 29.3 µM | TGI [28]: > 100 µM | TGI [29]: > 100 µM | TGI [30]: > 100 µM | TGI [31]: > 100 µM | TGI [32]: 55.6 µM | TGI [33]: > 100 µM | TGI [34]: > 100 µM | TGI [35]: 9.61 µM | TGI [36]: > 100 µM | TGI [37]: > 100 µM | TGI [38]: 5.68 µM | TGI [39]: > 100 µM | TGI [40]: > 100 µM | TGI [41]: > 100 µM | TGI [42]: > 100 µM | TGI [43]: > 100 µM | TGI [44]: 41.9 µM | TGI [45]: > 100 µM | TGI [46]: > 100 µM | TGI [47]: > 100 µM | TGI [48]: > 100 µM | TGI [49]: 49.6 µM | TGI [50]: > 100 µM | TGI [51]: > 100 µM | TGI [52]: > 100 µM | TGI [53]: 43.8 µM

COC1(OC)CC2C(=O)N(Cc3ccccc3)C1C(S(=O)(=O)c1ccccc1)C2C(C)S(=O)(=O)c1ccccc1 (configuration not stated)
TGI [1]: > 100 µM | TGI [2]: > 100 µM | TGI [3]: > 100 µM | TGI [4]: > 100 µM | TGI [5]: > 100 µM | TGI [6]: > 100 µM | TGI [7]: > 100 µM | TGI [8]: > 100 µM | TGI [9]: > 100 µM | TGI [10]: > 100 µM | TGI [11]: > 100 µM | TGI [12]: > 100 µM | TGI [54]: > 100 µM | TGI [13]: > 100 µM | TGI [14]: > 100 µM | TGI [15]: > 100 µM | TGI [17]: > 100 µM | TGI [18]: > 100 µM | TGI [19]: > 100 µM | TGI [20]: > 100 µM | TGI [21]: > 100 µM | TGI [55]: > 100 µM | TGI [22]: > 100 µM | TGI [56]: > 100 µM | TGI [23]: > 100 µM | TGI [24]: > 100 µM | TGI [25]: > 100 µM | TGI [26]: > 100 µM | TGI [27]: > 100 µM | TGI [28]: > 100 µM | TGI [29]: > 100 µM | TGI [30]: > 100 µM | TGI [31]: > 100 µM | TGI [32]: > 100 µM | TGI [57]: > 100 µM | TGI [33]: > 100 µM | TGI [34]: > 100 µM | TGI [35]: > 100 µM | TGI [36]: > 100 µM | TGI [37]: > 100 µM | TGI [39]: > 100 µM | TGI [40]: > 100 µM | TGI [41]: > 100 µM | TGI [42]: > 100 µM | TGI [43]: > 100 µM | TGI [44]: > 100 µM | TGI [45]: > 100 µM | TGI [46]: > 100 µM | TGI [58]: > 100 µM | TGI [48]: > 100 µM | TGI [49]: > 100 µM | TGI [50]: > 100 µM | TGI [51]: > 100 µM | TGI [52]: > 100 µM
